According to patent US20050065086A1, “Use of peptide-drug conjugation to reduce inter-subject variability of drug serum levels” (New River Pharmaceuticals Inc., priority 2002, published 2005):

Legend:
Caco-2 Cells [1] = details: unlike rapid and efficient in vivo absorption; cited from earlier work
physchem = assay type: physicochemical; details: pH 7.4, aqueous buffer
Excerpt: The enhanced absorption may be explained by the use of an additional transport mechanism, such as one of the peptide transporters.

Caco-2 Cells [2] = details: cited from earlier work
[3] = after oral administration (Gidal and coworkers); cited from earlier work

## N[C@@H](Cc1ccc(O)c(O)c1)C(=O)O [L-dopa]
Caco-2 Cells [1]
  transport by Caco-2 cells: do not transport L-dopa very well

## N[C@@H](Cc1cc(I)c(Oc2cc(I)c(O)c(I)c2)c(I)c1)C(=O)O [T4, sodium, levothyroxine sodium]
physchem
  solubility: 6.9 µg/mL

## NS(=O)(=O)c1cc2c(cc1Cl)N=CNS2(=O)=O [chlorothiazide]
Caco-2 Cells [2]; Caco-2
  permeability: low
Caco-2 Cells [2]
  absorption in humans: low

## NCC1(CC(=O)O)CCCCC1 [gabapentin]
[3]
  intersubject CV for the AUC: 22.5%
